Source: patent publication US12729186B2, “Prodrugs for sustained releasing therapeutic agents and uses thereof” (LIANGJIANG MEDICINE CO., LTD., priority 2020, dated 2026)

Assay: Drug release assay (hydrolysis rate test in pH 7.4 / pH 2.0 buffer, HPLC)
Type: physicochemical
Conditions: for Hydrolysis constant Kh pH 2.0 / Hydrolysis constant Kh pH 7.4: Kh=-ln[100%-Release rate (%)]/t; for Release rate (%) pH 2.0 (6 h): pH 2.0 buffer solution; for Release rate (%) pH 2.0 (6 h) / Release rate (%) pH 7.4 (0.5 h) / Release rate (%) pH 7.4 (6 h): 37° C., 200 rpm, residual content relative to 0 h by HPLC; for Release rate (%) pH 7.4 (0.5 h) / Release rate (%) pH 7.4 (6 h): pH 7.4 buffer solution
Method: Preparation of pH2.0 Buffer Solution
Preparation of pH7.4 Buffer Solution
Method of Hydrolysis Rate Test
The compounds were dissolved in pH7.4/pH2.0 buffer solution, placed in a constant temperature shaker at 37° C. and 200 rpm, and sampled at 0 h, 0.5 h and 6 h respectively. The residual contents of the compounds relative to 0 h were tested at each time point.
The release rates (%) were calculated using the following equation: Release rate (%)=[A(0h)−A(xh)]/A(0h)×100%, (x=0, 0.5, 6), A(xh) is the peak area of compounds tested by HPLC at the indicated time point.
The hydrolysis constants (Kh) were calculated using the following equation: Hydrolysis constant Kh=−ln[100%−Release rate (%)]/t Results

Row | SMILES | Hydrolysis constant Kh pH 2.0 | Release rate (%) pH 2.0 (6 h) | Hydrolysis constant Kh pH 7.4 | Release rate (%) pH 7.4 (0.5 h) | Release rate (%) pH 7.4 (6 h)
1 | O=C(OCn1cc(F)c(=O)[nH]c1=O)Oc1ccc(CC2CCN(C(c3ccccc3)c3ccccc3)CC2)cc1 [Example 9, 4-((1-Benzhydrylpiperidin-4-yl)methyl)phenyl ((5-fluoro-2,4-dioxo-3,4-dihydropyrimidin-1(2H)-yl)methyl) carbonate] | 0.027 | 15% | 4.508 | 89.5% | 90%
2 | CCCCC1CCN(c2ccc(CCOC(=O)n3cc(F)c(=O)[nH]c3=O)cc2)CC1 [Example 10, 4-(4-Butylpiperidin-1-yl)phenethyl 5-fluoro-2,4-dioxo-3,4-dihydropyrimidine-1(2H)-carboxylate] | 0.077 | 37% | 0.256 | 12.0% | 54%
3 | CCCCN(CCCC)c1ccc(N2CCC(CCOC(=O)n3cc(F)c(=O)[nH]c3=O)CC2)cc1 [Example 11, 2-(1-(4-(Dibutylamino)phenyl)piperidin-4-yl)ethyl 5-fluoro-2,4-dioxo-3,4-dihydropyrimidine-1(2H)-carboxylate] | 0.067 | 33% | 0.117 | 5.7% | 83%
4 | CC[C@@]1(O)C(=O)OCc2c1cc1n(c2=O)Cc2cc3cc(OC(=O)CC4CCN(CC(c5ccccc5)c5ccccc5)CC4)ccc3nc2-1 [Example 13, (S)-4-ethyl-4-hydroxy-3,14-dioxo-3,4,12,14-tetrahydro-1H-pyrano[3′,4′:6,7]indolizino[1,2-b]quinolin-9-yl 2-(1-(2,2-diphenylethyl)piperidin-4-yl)acetate] | <0.001 | 0.5% | 0.042 | 2.1% | 23.3%
5 | CCc1c2c(nc3ccc(OC(=O)[C@@H]4CCCN4C(c4ccccc4)c4ccccc4)cc13)-c1cc3c(c(=O)n1C2)COC(=O)[C@]3(O)CC [Example 14, (S)-4,11-diethyl-4-hydroxy-3,14-dioxo-3,4,12,14-tetrahydro-1H-pyrano[3′,4′:6,7]indolizino[1,2-b]quinolin-9-yl benzhydrylprolinate] | 0.015 | 8.4% | 3.876 | 85.6% | 84.4%
6 | CCc1c2c(nc3ccc(OC(=O)NCC4CCCN4C(c4ccccc4)c4ccccc4)cc13)-c1cc3c(c(=O)n1C2)COC(=O)[C@]3(O)CC (stereo partly drawn) [Example 16, (S)-4,11-diethyl-4-hydroxy-3,14-dioxo-3,4,12,14-tetrahydro-1H-pyrano[3′,4′:6,7]indolizino[1,2-b]quinolin-9-yl ((1-benzhydrylpyrrolidin-2-yl)methyl)carbamate] | <0.001 | 0.4% | 6.540 | 96.2% | 100%
7 | CCCCN1CCC(c2ccc(OC(=O)Oc3ccc4nc5c(c(CC)c4c3)Cn3c-5cc4c(c3=O)COC(=O)[C@]4(O)CC)cc2)CC1 [Example 17, (S)-4-(1-butylpiperidin-4-yl)phenyl (4,11-diethyl-4-hydroxy-3,14-dioxo-3,4,12,14-tetrahydro-1H-pyrano[3′,4′:6,7]indolizino[1,2-b]quinolin-9-yl) carbonate] | 0.095 | 43.6% | 0.096 | 4.7% | 57.4%
8 | CCCCCCCN1CCC(COC(=O)Oc2ccc3nc4c(c(CC)c3c2)Cn2c-4cc3c(c2=O)COC(=O)[C@]3(O)CC)CC1 [Example 18, (S)-4,11-diethyl-4-hydroxy-3,14-dioxo-3,4,12,14-tetrahydro-1H-pyrano[3′,4′:6,7]indolizino[1,2-b]quinolin-9-yl ((1-heptylpiperidin-4-yl)methyl) carbonate] | <0.001 | 0.3% | 0.184 | 8.8% | 11.9%
9 | CCc1c2c(nc3ccc(OC(=O)CN(C4CCCCC4)C4CCCCC4)cc13)-c1cc3c(c(=O)n1C2)COC(=O)[C@]3(O)CC [Example 19, (S)-4,11-diethyl-4-hydroxy-3,14-dioxo-3,4,12,14-tetrahydro-1H-pyrano[3′,4′:6,7]indolizino[1,2-b]quinolin-9-yl dicyclohexylglycinate] | 0.041 | 21.8% | 0.865 | 35.1% | 100%
10 | CC[C@@]1(O)C(=O)OCc2c1cc1n(c2=O)Cc2cc3cc(OC(=O)OCC4CCCN4C(c4ccccc4)c4ccccc4)ccc3nc2-1 (stereo partly drawn) [Example 20, (1-Benzhydrylpyrrolidin-2-yl)methyl ((S)-4-ethyl-4-hydroxy-3,14-dioxo-3,4,12,14-tetrahydro-1H-pyrano[3′,4′:6,7]indolizino[1,2-b]quinolin-9-yl) carbonate] | 0.078 | 37.2% | >20 | 100% | 100%
11 | Cn1nnc2c(C(=O)NC(=O)Oc3ccc(CC4CCN(C(c5ccccc5)c5ccccc5)CC4)cc3)ncn2c1=O [Example 21, 4-((1-Benzhydrylpiperidin-4-yl)methyl)phenyl (3-methyl-4-oxo-3,4-dihydroimidazo[5,1-d][1,2,3,5]tetrazine-8-carbonyl)carbamate] | <0.001 | 0% | 3.397 | 81.7% | 100%
12 | Cn1nnc2c(C(=O)NCc3ccc(CC4CCN(C(c5ccccc5)c5ccccc5)CC4)cc3)ncn2c1=O [Example 22, N-(4-((1-benzhydrylpiperidin-4-yl)methyl)benzyl)-3-methyl-4-oxo-3,4-dihydroimidazo[5,1-d][1,2,3,5]tetrazine-8-carboxamide] | <0.001 | 0% | 0.267 | 12.5% | 85.4%
13 | COc1cccc2c1C(=O)c1c(O)c3c(c(O)c1C2=O)C[C@@](O)(C(C)=O)C[C@@H]3O[C@H]1C[C@H](NC(=O)Oc2ccc(CN3CCN(C)CC3)cc2)[C@H](OC(C)=O)[C@H](C)O1 [Example 23, (2S,3S,4S,6R)-6-(((1S,3S)-3-acetyl-3,5,12-trihydroxy-10-methoxy-6,11-dioxo-1,2,3,4,6,11-hexahydrotetracen-1-yl)oxy)-2-methyl-4-(((4-((4-methylpiperazin-1-yl)methyl)phenoxy)carbonyl)amino)tetrahydro-2H-pyran-3-yl acetate] | 0.004 | 2.5% | 0.149 | 7.2% | 70.8%
14 | CCCCCCOC(=O)OCn1cc(F)c(=O)[nH]c1=O [Example 24, (5-Fluoro-2,4-dioxo-3,4-dihydropyrimidin-1(2H)-yl)methyl hexyl carbonate] | <0.001 | 0% | 0.094 | 4.6% | 55.7%
15 | COc1ccc(OC(=O)OCn2cc(F)c(=O)[nH]c2=O)cc1 [Example 25, (5-Fluoro-2,4-dioxo-3,4-dihydropyrimidin-1(2H)-yl)methyl (4-methoxyphenyl) carbonate] | 0.151 | 40.5% | 0.451 | 20.2% | 61.3%
